Experiment in all cases: In vitro competitive activity-based protein profiling (gel-based, FP-Rh or HT-01 probe)
Common to all, as to type: biochemical

The target in test [1] is T1, PLA2G7 (Mus musculus, UniProt Q60963).
T1 construct: Proteomes (mouse brain membrane fraction or cell lysates); from tissue; host or cells: mouse brain membrane fraction (or cell lysates, not specified)
T1 sequence (Q60963 22-440): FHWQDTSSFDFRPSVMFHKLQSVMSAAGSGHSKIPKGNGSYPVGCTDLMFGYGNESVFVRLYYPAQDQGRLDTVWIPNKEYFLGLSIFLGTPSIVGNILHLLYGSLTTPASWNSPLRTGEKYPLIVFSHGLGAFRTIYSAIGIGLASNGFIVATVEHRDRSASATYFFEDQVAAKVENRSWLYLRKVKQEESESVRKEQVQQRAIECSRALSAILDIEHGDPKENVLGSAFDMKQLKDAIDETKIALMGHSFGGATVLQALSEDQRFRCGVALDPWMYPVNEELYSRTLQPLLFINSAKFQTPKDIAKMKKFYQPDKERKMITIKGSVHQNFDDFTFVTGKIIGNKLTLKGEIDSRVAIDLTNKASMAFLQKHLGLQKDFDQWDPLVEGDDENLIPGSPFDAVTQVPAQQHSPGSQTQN
Particulars: for inhibition at 1 µM: 1 μM inhibitor, read-out: % Inhibition at 1 μM, D = PLA2G7; for IC50: mouse brain membrane fraction or cell lysates, 30 min preincubation at 37° C.; for inhibition at 10 µM: 10 μM inhibitor, read-out: % Inhibition at 10 μM, D = PLA2G7. The method, boiled down: (§1)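 Mouse brain membrane proteome or cell lysate (1.0 mg/mL protein) was preincubated with inhibitor at varying concentrations for 30 min at 37° C, then labelled with FP-Rh or HT-01 for 30 min at 37° C. After SDS-PAGE, residual hydrolase activity was quantified as in-gel fluorescence of each band.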

Test [2] concerns the target T2, ABHD6 (Mus musculus, UniProt Q8R2Y0).
T2 construct: Proteomes (mouse brain membrane fraction or cell lysates); from tissue; host or cells: mouse brain membrane fraction (or cell lysates, not specified)
T2 sequence (Q8R2Y0 1-336): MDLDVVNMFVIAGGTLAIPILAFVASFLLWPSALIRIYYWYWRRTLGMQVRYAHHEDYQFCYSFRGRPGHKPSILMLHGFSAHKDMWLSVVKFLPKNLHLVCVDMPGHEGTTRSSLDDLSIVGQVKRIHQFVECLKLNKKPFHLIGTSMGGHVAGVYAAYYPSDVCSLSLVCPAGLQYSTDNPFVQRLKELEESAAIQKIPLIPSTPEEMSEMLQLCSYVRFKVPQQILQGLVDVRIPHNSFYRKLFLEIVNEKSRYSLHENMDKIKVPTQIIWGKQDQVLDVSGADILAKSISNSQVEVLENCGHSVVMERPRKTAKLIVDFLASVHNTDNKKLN
Particulars: for inhibition at 1 µM: 1 μM inhibitor, read-out: % Inhibition at 1 μM, C = ABHD6; for IC50: mouse brain membrane fraction or cell lysates, 30 min preincubation at 37° C., read-out: Mouse (IC50 value, nM) ABHD6; for inhibition at 10 µM: 10 μM inhibitor, read-out: % Inhibition at 10 μM, C = ABHD6. The method, boiled down: as §1

In test [3] the target is T3, MAGL (Mus musculus, UniProt O35678).
T3 construct: Proteomes (mouse brain membrane fraction or cell lysates); from tissue; host or cells: mouse brain membrane fraction (or cell lysates, not specified)
T3 sequence (O35678 1-303): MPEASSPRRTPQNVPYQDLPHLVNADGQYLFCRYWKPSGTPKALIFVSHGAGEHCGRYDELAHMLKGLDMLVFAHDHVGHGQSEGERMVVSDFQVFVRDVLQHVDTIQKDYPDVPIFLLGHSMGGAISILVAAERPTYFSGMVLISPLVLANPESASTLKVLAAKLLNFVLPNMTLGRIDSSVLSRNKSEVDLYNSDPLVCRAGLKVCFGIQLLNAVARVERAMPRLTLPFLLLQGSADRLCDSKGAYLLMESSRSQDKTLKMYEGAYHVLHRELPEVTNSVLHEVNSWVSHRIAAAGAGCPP
Particulars: for inhibition at 1 µM: 1 μM inhibitor; for IC50: mouse brain membrane fraction or cell lysates, 30 min preincubation at 37° C., read-out: Mouse (IC50 value, nM) MAGL; for inhibition at 10 µM: 10 μM inhibitor. The method, boiled down:
as §1

The target of test [4] is T4, FAAH (Mus musculus, UniProt O08914).
T4 construct: Proteomes (mouse brain membrane fraction or cell lysates); from tissue; host or cells: mouse brain membrane fraction (or cell lysates, not specified)
T4 sequence (O08914 1-579): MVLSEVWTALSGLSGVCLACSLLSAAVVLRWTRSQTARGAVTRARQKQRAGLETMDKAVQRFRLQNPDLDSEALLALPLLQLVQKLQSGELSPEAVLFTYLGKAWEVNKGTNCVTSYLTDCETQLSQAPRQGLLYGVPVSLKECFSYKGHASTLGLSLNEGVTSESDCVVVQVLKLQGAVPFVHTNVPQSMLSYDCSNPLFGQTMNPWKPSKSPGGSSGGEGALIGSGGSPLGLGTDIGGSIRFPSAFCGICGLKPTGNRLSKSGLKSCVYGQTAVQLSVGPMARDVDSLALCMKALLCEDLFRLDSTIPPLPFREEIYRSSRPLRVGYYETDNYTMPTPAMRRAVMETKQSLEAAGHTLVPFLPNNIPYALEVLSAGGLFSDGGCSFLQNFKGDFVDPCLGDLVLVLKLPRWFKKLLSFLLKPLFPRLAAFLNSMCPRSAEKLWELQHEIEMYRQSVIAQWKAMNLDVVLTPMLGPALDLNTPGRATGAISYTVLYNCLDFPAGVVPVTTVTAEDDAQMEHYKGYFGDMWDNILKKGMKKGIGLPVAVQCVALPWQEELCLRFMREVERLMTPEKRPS
Particulars: for inhibition at 1 µM: 1 μM inhibitor, read-out: % Inhibition at 1 μM, B = FAAH; for IC50: mouse brain membrane fraction or cell lysates, 30 min preincubation at 37° C., read-out: Mouse (IC50 value, nM) FAAH; for inhibition at 10 µM: 10 μM inhibitor, read-out: % Inhibition at 10 μM, B = FAAH. The method, boiled down:
as §1

Read-outs that look alike come from different tables or passages of the source.

By inhibition is commonly meant the percentage by which the read-out fell short of the control. One may read the IC50 as the point on the concentration scale where inhibition reaches its midpoint. Turning to `O=C(N1CCN(Cc2cccc(F)c2)CC1)n1cc(C(F)(F)F)cn1` [Example 269, (4-(3-Fluorobenzyl)piperazin-1-yl)(4-(trifluoromethyl)-1H-pyrazol-1-yl)methanone], the inhibition at 1 µM in test [1] (gel-based competitive ABPP), in test [2] (gel-based competitive ABPP), in test [3] (gel-based competitive ABPP) and in test [4] (gel-based competitive ABPP) was over 75% each time. The IC50 in test [1], in test [2], in test [3] and in test [4] was under 100 nM throughout.

In the case of `CCN(Cc1ccccc1Cl)C(=O)n1cc(Cl)cn1` [Example 130, 4-Chloro-N-(2-chlorobenzyl)-N-ethyl-1H-pyrazole-1-carboxamide], the inhibition at 1 µM in test [1], in test [2], in test [3] and in test [4] was under 25% throughout.

Turning to `Cc1ccccc1CN1CCN(C(=O)n2cc(C(F)(F)F)cn2)CC1` [Example 277, (4-(2-Methylbenzyl)piperazin-1-yl)(4-(trifluoromethyl)-1H-pyrazol-1-yl)methanone], the inhibition at 1 µM in test [1] (gel-based competitive ABPP), in test [2] (gel-based competitive ABPP), in test [3] (gel-based competitive ABPP) and in test [4] (gel-based competitive ABPP) was over 75% each time.

Turning to `O=C(c1cnn(C(=O)N2CCN(Cc3cccnc3)CC2)c1)N1CCCC1` [Example 80, (4-(Pyridin-3-ylmethyl)piperazin-1-yl)(4-(pyrrolidine-1-carbonyl)-1H-pyrazol-1-yl)methanone], the inhibition at 1 µM is under 25% in test [1] and 25 to 75% in test [2]. Also, the inhibition at 10 µM in test [1] is over 75%; in test [2], over 75%; in test [3], under 25%; in test [4], 25 to 75%.

`O=C(N1CCN(Cc2ccncn2)CC1)n1cc(-c2ccccc2)cn1` [Example 62, (4-Phenyl-1H-pyrazol-1-yl)(4-(pyrimidin-4-ylmethyl)piperazin-1-yl)methanone]: the inhibition at 1 µM in test [1] and in test [2] was over 75% each time. For the same compound, the inhibition at 10 µM in test [1] was over 75%; in test [2], over 75%; in test [3], under 25%; in test [4], over 75%.

Consider `N#Cc1cnn(C(=O)NCCCc2ccccc2)c1` [Example 33, 4-Cyano-N-(3-phenylpropyl)-1H-pyrazole-1-carboxamide], for which the inhibition at 1 µM in test [1], in test [2], in test [3] and in test [4] was under 25% each time. In addition, the inhibition at 10 µM in test [1] was under 25%; in test [2], under 25%; in test [3], under 25%; in test [4], over 75%.

On to `N#Cc1cnn(C(=O)N2CCN(Cc3ccc(-c4ccccc4)cc3Cl)CC2)c1` [Example 140, 1-(4-((3-chlorobiphenyl-4-yl)methyl)piperazine-1-carbonyl)-1H-pyrazole-4-carbonitrile], for which the inhibition at 1 µM in test [1], in test [2], in test [3] and in test [4] was over 75% in each case. Besides, the inhibition at 10 µM in test [1], in test [2], in test [3] and in test [4] was over 75% each time.

For the compound `O=C(c1cnn(C(=O)N2CCN(Cc3ccc4c(c3)OCO4)CC2)c1)N1CCOCC1` [Example 51, (4-(Benzo[d][1,3]dioxol-5-ylmethyl)piperazin-1-yl)(4-(morpholine-4-carbonyl)-1H-pyrazol-1-yl)methanone], the inhibition at 1 µM was under 25% in test [1], over 75% in test [2], under 25% in test [3] and under 25% in test [4]. The inhibition at 10 µM in test [1], in test [2], in test [3] and in test [4] was over 75% throughout. Further, in test [2], the IC50 was 100 to 1000 nM.

Take `O=C(N1CCCC1)n1cc(-c2ccccc2)cn1` [Example 103, (4-Phenyl-1H-pyrazol-1-yl)(pyrrolidin-1-yl)methanone]: the inhibition at 10 µM in test [1] was over 75%; in test [2] it was under 25%; in test [3] it was under 25%; in test [4], over 75%.

As to `Cc1cnn(C(=O)NCCCCCc2ccccc2)c1` [Example 38, 4-Methyl-N-(5-phenylpentyl)-1H-pyrazole-1-carboxamide], the inhibition at 10 µM in test [1], in test [2], in test [3] and in test [4] was under 25% throughout.

For the compound `O=C(N1CCOCC1)n1cc(C(F)(F)F)cn1` [Example 201, Morpholino(4-(trifluoromethyl)-1H-pyrazol-1-yl)methanone], the inhibition at 1 µM in test [1] is over 75%; in test [2], over 75%; in test [3], under 25%; in test [4], over 75%. In addition, the inhibition at 10 µM in test [1] is over 75%; in test [2] it was over 75%; in test [3], 25 to 75%; in test [4] it was over 75%.

Take `CC(=O)N1CCN(C(=O)n2cc(Cl)cn2)CC1` [Example 183, 1-(4-(4-Chloro-1H-pyrazole-1-carbonyl)piperazin-1-yl)ethanone]: the inhibition at 1 µM in test [1], in test [2], in test [3] and in test [4] was under 25% each time. For the same compound, the inhibition at 10 µM in test [1] is over 75%; in test [2], under 25%; in test [3], under 25%; in test [4], under 25%.

In the case of `Cc1cc(-c2ccccc2)ccc1CN1CCN(C(=O)n2cc(C#N)cn2)CC1` [Example 138, 1-(4-((3-methylbiphenyl-4-yl)methyl)piperazine-1-carbonyl)-1H-pyrazole-4-carbonitrile], the inhibition at 1 µM in test [1], in test [2], in test [3] and in test [4] was over 75% in each case. The inhibition at 10 µM in test [1], in test [2], in test [3] and in test [4] was over 75% throughout. In addition, the IC50 in test [1], in test [2], in test [3] and in test [4] was under 100 nM in each case.

(Values after patent publication US10093630B2, “Pyrazole compounds and methods of making and using same” (ABIDE THERAPEUTICS, INC., priority 2014, dated 2018).)
